Measurements as given in patent US11413328B2, “Methods for treating inflammatory conditions of the lungs” (priority 2016, dated 2022).
Bridges are numbered along the chain shown (N, C = ends). Where no end group is shown, it is not given here.

Key:
[1] = test system: IL-1β, TNF-α, IL-6, IL-10 and IFNγ in lung tissue homogenates; assay: Cytokine ELISA in lung tissue homogenates, HDM asthma model (Example 2); format: in vivo, BALB/c mice; conditions: vs HDM/vehicle
Procedure: Female 7-10 weeks old BALB/c mice were randomly allocated into 7 study groups one day prior to study start and subcutaneously (SC) sensitized to house dust mite (100 μg HDM in 200 μL saline plus Freunds complete adjuvant in 0.9% saline). Mice were then intranasally (IN) challenged with HDM on day 14 (HDM 25 μg in 50 μL of saline). […] The initial dose was administered 60 minutes prior to challenge, and the subsequent doses approximately 6 hours apart.
Lung sampling for cytokine analysis: After completion of every BAL, lungs were removed from the thorax, snap frozen in liquid nitrogen and stored frozen at −80 degrees Celsius until analysis of cytokine concentration of IL-1β, TNF-α, IL-6, IL-10 and IFNγ by ELISA.

[2] = test system: TNF-α, IL-4, IL-5, IL-6, IL-9, IL-13 and IL-33 in lung homogenate; assay: Cytokine ELISA in lung homogenate, prophylactic treatment in HDM asthma model (Example 9); format: in vivo, BALB/c mice
Procedure: (§1) Female 7-10 weeks old BALB/c mice were randomly allocated into 5 study groups one day prior to study start and subcutaneously (SC) sensitized to house dust mite (100 μg HDM in 200 μL saline plus Freund's complete adjuvant in 0.9% saline). The mice were treated with hBD-2 orally and intranasally respectively at a dose of 1.2 mg/kg/day (0.4 mg/kg TID) starting on day 12 in the morning and continued TID at approximately 6 hours intervals. The last dose was administered on day 14 one hour prior to challenge. The total number of doses were 8 doses or a total of […] hBD-2. Mice were then intranasally (IN) challenged with HDM on day 14 (HDM 25 μg in 50 μL of saline).
Lung sampling for cytokine analysis: After completion of every BAL, lungs were removed from the thorax, snap frozen in liquid nitrogen and stored frozen at −80 degrees Celsius until analysis of cytokine concentration of TNF-α, IL-4, IL-5, IL-6, IL-9, IL-13 and IL-33 in lung homogenate by ELISA.

[3] = Pharmacokinetics after single oral gavage; format: in vivo, NMRI mice; conditions: oral 4 mg/kg in mice
Procedure: Pharmacokinetic study to establish pharmacokinetic profile of hBD-2 following single oral gavage of 4 mg/kg administration to NMRI mice.
21 female NMRI mice were dosed by oral gavage 5 ml/kg using a gavage tube and a 1 ml syringe according to the individual body weight obtained on the day of dosing. Urine was strived sampled at random time points by gently massaging the inguinal area of the abdomen. The first blood sample was taken using a submandibular sampling method. The second blood sample was collected from Isoflurane anaesthetized mice. Intestinal samples were taken after euthanasia. The abdomen of each mouse was opened and three sections of the intestines were sampled.

[4] = test system: murine house dust mite/Freunds complete adjuvant driven model of allergic asthma; assay: Lung histopathology (H&E/PAS), HDM asthma model (Example 3); format: in vivo, BALB/c mice; conditions: vs HDM challenged vehicle
Procedure: Treatment regime: Female 7-10 weeks old BALB/c mice randomly allocated into 4 study groups one day prior to study start were subcutaneously (SC) sensitized to house dust mite (100 μg HDM in 200 μL saline plus Freund's complete adjuvant in 0.9% saline). Mice were intranasally (IN) challenged with HDM on day 14 (HDM 25 μg in 50 μL of saline). hBD-2 was administered IN or orally (0.4 mg/kg TID IN; 0.4 mg/kg TID orally, 50 μL phosphate buffered saline) on day 14. The initial dose was administered 60 minutes prior to challenge, and the subsequent doses approximately 6 hours apart. […] Lungs from other 8 animals per group were inflated in situ with 10% buffered formalin, removed from thorax, placed individually in 10% buffered formalin, paraffin embedded in toto, sectioned and H&E/PAS stained. The paraffin blocks were retained for the IHC analysis. Cellular influx (mononuclears, eosinophils, neutrophils) was assessed semi-quantitatively on H&E stained slides separately for peri-bronchial/bronchiolar and perivascular space as follows: [table] Overall score for inflammation was calculated as sum of all individual scores.

[5] = test system: microbiota of the intestine; assay: 16S microbiota analysis, prophylactic defensin treatment in high fat diet model (Example 10); format: in vivo, mice
Text: Mice were housed in trios, 4 cages per group. Feed intake was registered daily just before lights were turned off at […]. Individual mice were subjected to experimental procedures in altered order both group and cage wise. Mice were kept at room temperature under a 12-hour light/dark cycle at SPF standard conditions. The treatment regime is described in FIG. 38. Mice were fed either a high fat diet (HFD) or a low fat (LF) control diet. The HFD contained 4 subgroups; 1 hBD2, 1 HD5, 1 hBD2/HD5 and 1 standard HFD without supplementation of defensins. Defensin concentration was 1.2 mg hBD2 per kg mouse per day. HD5 was given in equimolar concentration to hBD2. […] Microbial analyses were carried out to study the microbiota of the intestine. Longitudinal 16S characterization was conducted on 4 paired samples from 60 mice, 240 samples in total. Each mouse was sampled prior to diet change, 1 week post diet change, 4 weeks post diet change and at termination, thus ensuring a thorough characterization of the faecal microbiota as a result of defensin treatment.

[6] = test system: murine house dust mite driven model of allergic asthma; assay: Cell counts in BALF, prophylactic treatment in HDM asthma model (Example 9); format: in vivo, BALB/c mice; conditions: prophylactic oral 0.4 mg/kg TID day 12 to day 14
Procedure: as §1
Airway inflammation: At 48 hours post challenge, bronchoalveolar lavage was performed washing the lungs with 3 volumes of cold PBS (0.4; 0.3 and 0.3 mL, total 1 mL). Total and differential leucocyte cell counts were determined on an automated haematological analyser Sysmex XT-2000iV.

[7] = prophylactic intranasal, not statistically significantly different from the control

GIGDPVTCLKSGAICHPVFCPRRYKQIGTCGLPGTKCCKKP (disulfide 8-37, 15-30, 20-38 (inferred)) [hBD-2, human beta defensin 2]
IFN-γ level in lung tissue homogenates ([1]; intranasal): significant effects | TNF-α level in lung tissue homogenates ([1]; intranasal): not significantly different from the control | TNF-α level in lung tissue homogenates ([1]; oral (hBD2 0.4 mg/kg TID; dexamethasone 1 mg/kg BID)): significantly reduced | IFN-γ level in lung tissue homogenates ([1]; oral (hBD-2 0.4 mg/kg TID; dexamethasone 1 mg/kg BID)): significant effects | IL-4 in lung homogenate [2, 7]: trend towards lowering | IL-5 in lung homogenate [2, 7]: trend towards lowering | IL-6 in lung homogenate [2, 7]: trend towards lowering | IL-9 in lung homogenate [2, 7]: trend towards lowering | IL-13 in lung homogenate [2, 7]: trend towards lowering | TNF-α in lung homogenate [2, 7]: trend towards lowering | cytokine concentrations in lung tissue homogenates (TNF-α, IL-4, IL-5, IL-6, IL-9 and IL-13) ([2]; prophylactic oral administration): complete normalization | systemic availability after oral dosing [3]: not systemically available | increase in histological inflammation of lung tissue ([4]; intranasal 0.4 mg/kg TID day 14): effectively inhibited | increase in histological inflammation of lung tissue ([4]; oral 0.4 mg/kg TID day 14): effectively inhibited | effect on microbial presence / microbial abundance ([5]; 1.2 mg hBD2 per kg per day in feed, HD5 equimolar, combination 50% + 50%): affected primarily the microbial presence | abundance of Barnesiella in the colon ([5]; prophylactic treatment, p<0.03): statistically significant increase | abundance of Lactobacillaceae in colon ([5]; prophylactic treatment, p=0.1): trend towards lower abundance | neutrophil counts in BALF [6]: significantly inhibited
